Test results from BindingDB's records for PubMed 15173008 (Wyeth Research).

Experiment: Inhibition of recombinant PDK1 (unknown origin) using peptide as substrate

Work on `COc1cc2ncc(C#N)c(Nc3ccc(OCc4ccccn4)c(Cl)c3)c2cc1NC(=O)/C=C/CN(C)C` yielded an IC50 of over 5 µM.
